From patent publication US20230391868A1, “COMPOSITIONS FOR AND METHODS OF TREATING CANCER” (The George Washington University, priority 2022, published 2023) come the findings set out here.

For assay [1], the system named is human THP1-derived macrophages. The assay is described as follows: Pro-phagocytic signal gene expression in THP1-derived macrophages. As to conditions: human THP1-derived macrophages. It is filed as cell-based. The method, then: Macrophages were polarized to M1-like phenotype using 50 ng/mL of interferon gamma (IFNγ, 575306, Biolegend) and 100 ng/mL of bacterial lipopolysaccharide (LPS, L2880, Sigma Aldrich, St. Louis, MO) for 24 hours. To polarize macrophages towards the M2-like phenotype, macrophages were stimulated with 20 ng/mL of IL-4 (214-14, PeproTech) and 20 ng/mL of IL-13 (575904, Biolegend). THP1 monocytes were treated with 5 ng/mL of phorbol 12-myristate 13-acetate (PMA) to induce differentiation into macrophages. Once converted to macrophages, media was replaced to remove PMA prior to treatment and/or polarization. Polarization towards M1 and M2 phenotypes was performed with respective recombinant human cytokines from PeproTech: 50 ng/mL of IFNγ (300-02), 20 ng/mL IL-4 (200-04), and 20 ng/mL IL-13 (200-13). 100 ng/mL LPS was also used to polarize toward the M1 phenotype. 3. In vivo Studies.
qRT-PCR: Total RNA was extracted from cells using the Trizol reagent according to manufacturer's instructions (ThermoFisher Scientific, 15596018). Samples were then processed immediately or stored at −80° C. RNA was quantified using a NanoDrop One Spectrophotometer (ThermoFisher Scientific). The 260/280 ratios were routinely over 1.8. Sample cDNA was produced using the iScript cDNA synthesis kit (Bio-Rad, 1708891). Target mRNA was quantified using MyIQ single-color real-time PCR detection system from Bio-Rad (Bio-Rad, Hercules, CA) and iQ SYBR green Supermix (Bio-Rad, 1708882). The following primers were synthesized by Invitrogen (Waltham, MA) with sequences designed by Origene (Rockville, MD): mouse R-actin (MP200232), mouse Nos2 (MP208933), mouse MRC1 (MP207800), human R-actin (HP204660), human IL-1β (HP200544), human MRC1 (HP206121), human NOS2 (HP200591), human CD209 (HP214086), mouse SIRPα (MP215450), mouse LRP1 (MP207604), human LRP1 (HP206040), mouse MFGE8 (MP208190), human MFGE8 (HP225757), mouse CD36 (MP201923), human CD36 (HP200058), and mouse CD47 (MP201932). […] Quantification is expressed in arbitrary units and target mRNA levels were normalized to R-actin expression.

The subject of a further assay is SM1 melanoma tumors. The assay is described as follows: SM1 melanoma tumor growth in vivo. Details: species or system mouse. Conditions: SM1-bearing C57/Bl6 mice, NextA 20 mg/kg intraperitoneally, anti-CD47 100 μg intratumorally, every other day, vs vehicle control. The method, then: Animal experiments were performed in accordance with protocol A354 approved by the Institutional Care and Use Committee (IACUC) at The George Washington University. Female C57BL/6 mice (4-6 weeks old) were purchased from Charles River Laboratories (Wilmington, Massachusetts, USA). Mice were injected subcutaneously in their right flank with 10^6 in vivo passaged SM1 melanoma cells suspended in 100 μL of PBS (Corning, 21-040-CV) at day 0. Cages were randomly assigned to different treatment groups, and mice were treated intraperitoneally with 100 μL of vehicle control or NextA at 20 mg/kg every other day when tumors became palpable, which was a week after tumor implantation.
Six days after the first NextA treatment, mice were also treated intratumorally with 100 μg of αCD47 every two days (clone miap301, BE0270, BioXCell, Lebanon, NH, USA) until the end of the study. Tumor measurements were taken every other day using caliper measurements and calculated using the formula L×W^2/2. All animals were routinely monitored for early signs of toxicity. […]
First, C57/Bl6 mice were inoculated with SM1 melanoma cells (n=15 mice per group). […] The concentrations of NextA and anti-CD47 were determined by performing drug and antibody titrations. Tumor growth was monitored every other day from when the tumors became palpable until the experimental endpoint.

Turning to `CCCCN(Cc1ccc(C(=O)NO)cc1)C(=O)Nc1ccccc1` [NextA, Nexturastat A], the “expression of Lrp1, Cd36, and Mfge8” value in assay [1] is “significant increase”. Further, the tumor growth result in the assay with SM1 melanoma tumors is “moderately decreased tumor growth”; in the assay on SM1 melanoma tumors (listed as Nexturastat A), “enhanced the antitumor efficacy of anti-CD47”.
